Like-named read-outs stand apart in the source and are kept apart here.
What was measured:
[1] = tested on: rRNA gene; assay type: cell-based, human; settings: HepG2, 10 μM, 7 days
Protocol: Low passage number HepG2 cells, obtained from American Tissue Culture Collection (ATCC, Manassas, Va.) were seeded at 5,000 cells/well in collagen-coated 96-well plates. Test compounds were added to the media to obtain a final concentration of 10 μM. On culture day 7, cellular nucleic acids were prepared by using commercially available columns (RNeasy 96 kit, Qiagen).
The rRNA gene primers and probes were purchased from Applied Biosystems. […] The comparative Ct method uses arithmetic formulas in which the amount of target (COXII gene) is normalized to an endogenous reference (β-actin gene or rRNA gene) and is relative to a calibrator (no drug control at day 7). The arithmetic formula for this approach is given by 2-ΔΔCt (User bulletin # 2, Applied Biosystems).
In order to study the consequences of possible inhibitory effects of these compounds on host DNA polymerases, nuclear and rnitochondrial DNA levels were quantified and compared to no-treatment controls. Cells were incubated for 7 days with 10 μM of each compound, followed by total nucleic acid extractions and multiplex Q-PCR of the rRNA gene and the mitochondrial COXII gene. Nucleic acids from cells exposed to the control compounds were also amplified in multiplex for mitDNA and the β-actin gene.

[2] = tested on: HIV-1 xxBRU (wild type); experiment: HIV-1 RT-assay on supernatant of acutely infected human PBM cells, strain xxBRU; assay type: cell-based; settings: 5 days, RT activity reduced by 90%
Protocol: (§1) Human PBM cells (1×10^6 cells/T25 flask) were PHA stimulated for 2 or 3 days, and infected with either a wild type (LAI and xxBRU) or a 3TC-resistant (xxBRU 184V) HIV-1 strain at 100 TCID50, as previously described (27). The culture was kept for 5 days in presence of test compounds at serial 1-log dilutions. Subsequently, human PBM cells were removed from the culture supernatant by centrifugation (10 minutes, 400×g, 4° C.). This clarified supernatant was tested either in the RT-assay, or in the Q-RT-PCR assay.
(§2) Virus particles present in a 1 mL aliquot of culture supernatant were concentrated by high-speed centrifugation (2 hours, 20,000×g, 4° C.). The supernatant was then removed and the virus pellet was dispensed into a 100 μL virus solubilization buffer (VSB: 0.5% Triton X-100; 0.8 M NaCl, 0.5 mM phenylmethylsulfonyl, 20% glycerol, 50 mM Tris.HCl pH 7.8). A 10 μL aliquot of RT-VSB was mixed with 75 μL RT cocktail (60 mM Tris.HCl pH 7.8, 12 mM MgCl2, 6 mM DTT, 6 μg/mL poly (rA)n-oligo (dT)10-12, 1.2 mM dATP, and 80 μCi/mL 3H-TTP) and incubated for 2 hours at 37° C. Subsequently 100 μL of 10% TCA was added, and the total amount of incorporated 3H-TTP was determined.
(§3) HIV-1 present in culture supernatant fluids was quantified by two different methodologies: i) the Q-RT-PCR with read-out in log copies/mL; and ii) the endogenous viral RT assay on cell supernatant with read-out in log counts per minute/mL (CPM/mL). Upon addition of antiviral compounds to the culture media, a dose-related decrease in virus production was observed. Although the two methodologies measured different parameters (viral RNA versus active RT enzyme), results were not markedly different from each other. The HIV-1 Q-RT-PCR results were compared with a previously established cell-based antiviral drug evaluation assay (endogenous HIV-1 RT polymerization activity in cell supematant)(27).

[3] = tested on: 3TC-resistant (xxBRU 184V) HIV-1; experiment: HIV-1 RT-assay on supernatant of acutely infected human PBM cells, strain xxBRU 184V; assay type: cell-based; settings: for EC90: read-out: RT-Assay 184V EC90
Protocol: as §1, §2, §3

[4] = tested on: HIV-1 LAI (wild type); experiment: HIV-1 RT-assay on supernatant of acutely infected human PBM cells, strain LAI; assay type: cell-based; settings: 5 days, RT activity reduced by 90%
Protocol: as §1, §2, §3

[5] = Human immunodeficiency virus 1, PBMC, 120 h
[6] = human PBM cells, 5 days, RT activity reduced by 90%

Compound	Average ΔCt ± SD rDNA [1]	Average ΔΔCt ± SD rDNA-β-actin [1]	EC90 [2, 5]	EC90 [3, 5]	EC90 [4, 5]	RT-Assay FI, fold increase (EC90 HIV-1184V/EC90 HIV-1xxBRU) [3]	EC90 [2]	EC90 [3, 6]	EC90 [4]
Cc1cn([C@H]2C[C@H](N=[N+]=[N-])[C@@H](CO)O2)c(=O)[nH]c1=O [AZT, 3′-azido-3′-deoxythymidine, reference compound]	0.86 ± 0.55	0.76 ± 0.87	0.01 µM	0.002 µM	0.02 µM	–	–	–	–
Nc1ccn([C@@H]2CS[C@H](CO)O2)c(=O)n1 [Compound 3TC, (−)-β-2′,3′-dideoxy-3′-thiacytidine, reference compound]	0.47 ± 0.51	0.36 ± 0.66	0.08 µM	535 µM	0.13 µM	6,688	–	–	–
Nc1ccn([C@@H]2C=C(F)[C@H](CO)O2)c(=O)n1 [Compound 10, 1-(2,3-Dideoxy-3-fluoro-β-L-glycero-pent-2-eno-furanosyl)cytosine]	−0.08 ± 0.50	–	35.5 µM	572 µM	25.3 µM	16.1	–	–	–
Nc1ccn([C@@H]2C=C(F)[C@H](CO)O2)c(=O)n1 [Compound 23, 1-(2,3-Didcoxy-3-fluoro-β-L-glycero-pent-2-eno-furanosyl)cytosine]	−0.51 ± 0.35	–	–	–	–	586	0.14 µM	82 µM	0.67 µM
Nc1ccn([C@@H]2S[C@H](CO)C=C2F)c(=O)n1 [Compound D-17, (−)-1-[(1S,4R)-2,3-dideoxy-2,3-didehydro-2-fluoro4-thio-β-D-ribofuranosyl]-cytosine]	0.81 ± 0.60	–	–	–	–	25.0	5 µM	125 µM	11.9 µM
Nc1nc(=O)n([C@@H]2S[C@H](CO)C=C2F)cc1F [Compound D-18, (−)-1-[(1S,4R)-2,3-dideoxy-2,3-didehydro-2-fluoro-4-thio-β-D-ribofuranosyl]-5-fluorocytosine]	−0.45 ± 0.60	–	–	–	–	–	119 µM	> 100 µM	> 100 µM
Nc1ccn([C@H]2S[C@@H](CO)C=C2F)c(=O)n1 [Compound L-17, (+)-1-[(1S,4R)-2,3-dideoxy-2,3-didehydro-2-fluoro-4-thio-β-L-ribofuranosyl]-cytosine]	0.49 ± 0.77	–	–	–	–	1,121	1.4 µM	1570 µM	3.3 µM
Nc1nc(=O)n([C@H]2S[C@@H](CO)C=C2F)cc1F [Compound L-18, (+)-1-[(1S,4R)-2,3-dideoxy-2,3-didehydro-2-fluoro-4-thio-β-L-ribofuranosyl]-5-fluoro-cytosine]	0.10 ± 0.44	–	–	–	–	>100	1.1 µM	> 100 µM	2.6 µM

— patent US6949522B2, “β-2′- or 3′-halonucleosides” (Pharmasset, Inc., priority 2001, dated 2005)
